# Results from patent US20180020662A1, “Substituted 1-cycloalkyl-2-oxotetrahydroquinolin-6-ylsulfonamides or salts thereof and use thereof to increase stress tolerance in plants” (BAYER CROPSCIENCE AKTIENGESELLSCHAFT, priority 2015, published 2018).
# Target: T1, phosphatase ABI1 via the co-regulator RCAR11/PYR1 (Arabidopsis thaliana, UniProt O49686+P49597)
# T1 sequence (O49686 1-191): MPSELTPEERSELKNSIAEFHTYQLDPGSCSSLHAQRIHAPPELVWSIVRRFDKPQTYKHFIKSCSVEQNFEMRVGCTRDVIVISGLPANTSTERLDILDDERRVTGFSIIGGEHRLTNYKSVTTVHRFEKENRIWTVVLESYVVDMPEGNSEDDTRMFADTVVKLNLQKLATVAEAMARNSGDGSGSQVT
# T1 sequence (P49597 1-434): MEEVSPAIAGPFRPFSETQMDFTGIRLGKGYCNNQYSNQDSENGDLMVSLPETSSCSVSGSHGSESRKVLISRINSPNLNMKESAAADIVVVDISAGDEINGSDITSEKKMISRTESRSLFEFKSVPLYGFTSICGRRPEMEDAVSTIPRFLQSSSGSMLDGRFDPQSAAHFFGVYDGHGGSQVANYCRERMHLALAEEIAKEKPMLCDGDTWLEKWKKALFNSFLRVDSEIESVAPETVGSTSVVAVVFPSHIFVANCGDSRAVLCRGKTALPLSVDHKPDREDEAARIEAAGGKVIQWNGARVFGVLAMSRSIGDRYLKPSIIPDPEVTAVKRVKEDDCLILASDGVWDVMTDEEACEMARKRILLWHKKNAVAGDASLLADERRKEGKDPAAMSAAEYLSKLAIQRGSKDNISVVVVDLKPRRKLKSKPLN
# Test: In vitro assay: inhibition of ABI1 dephosphorylation of 4-methylumbelliferyl phosphate (MUP), fluorescence
# Assay type: biochemical
# Conditions: concentration of 5 mM of the substance in DMSO and water, 35° C., 20 minutes
# From the text: Effects of the phytohormone abscisic acid (ABA) on the behavior of plants under abiotic stress and the mechanism of action of ABA are described in the literature (cf. Abrams et al., WO97/23441, Park et al. Science, 2009, 324, 1068; Grill et al. Science, 2009, 324, 1064; Tanokura et al. Biophysics, 2011, 7, 123; Schroeder et al. Plant J. 2010, 61, 290). Therefore, it is possible with the aid of a suitable in vitro test system to derive a correlation between the action of ABA and the stress response of a plant under abiotic stress. In the event of water deficiency (drought stress), plants form the phytohormone abscisic acid (ABA). This binds, along with a co-regulator (Regulatory Component of ABA-Receptor=RCAR according to Grill et al. Science, 2009, 324, 1064 or PYR/PYL according to Cutler et al. Science, 2009, 324, 1068), to a phosphatase (e.g. ABI1, a type 2C protein phosphatase, also abbreviated to PP2C) and inhibits its activity. As a result, a “downstream” kinase (e.g. SnRK2) is no longer dephosphorylated. This kinase, which is thus active, via phosphorylation of transcription factors (e.g. AREB/ABF, cf. Yoshida et al Plant J. 2010, 61, 672), switches on a genetic protection program to increase drought stress tolerance. The assay described hereinafter utilizes the inhibition of the phosphatase ABI1 via the co-regulator RCAR11/PYR1 aus Arabidopsis thaliana. For the determination of activity, the dephosphorylation of 4-methylumbelliferyl phosphate (MUP) was measured at 460 nm. The in vitro assay was conducted in Greiner 384-well PS microplates F-well, using two controls: a) 0.5% dimethyl sulfoxide (DMSO) and b) 5 μM abscisic acid (ABA). The assay described here was generally conducted with substance concentrations of the appropriate chemical test substances in a concentration range of 0.1 μM to 100 μM in a solution of DMSO and water. The substance solution thus obtained, if necessary, was stirred with esterase from porcine liver (EC 3.1.1.1) at room temperature for 3 h and centrifuged at 4000 rpm for 30 min. A total volume of 45 μl was introduced into each cavity of the microplate, having the following composition: • 1) 5 μl of substance solution, i.e. a) DMSO 5% or b) abscisic acid solution or c) the corresponding example compound of the general formula (I) dissolved in 5% DMSO. • 2) 20 μl of enzyme buffer mix, composed of a) 40% by vol. of enzyme buffer (10 ml contain equal proportions by volume of 500 mM Tris-HCl pH 8, 500 mM NaCl, 3.33 mM MnCl2, 40 mM dithiothreitol (DTT)), b) 4% by vol. of ABI1 dilution (protein stock solution was diluted so as to give, after addition, a final concentration in the assay of 0.15 μg ABI1/well), c) 4% by vol. of RCAR11 dilution (enzyme stock was diluted so as to give, on addition of the dilution to the enzyme buffer mix, a final concentration in the assay of 0.30 μg enzyme/well), d) 5% by vol. of Tween20 (1%), e) 47% by vol. H2O bi-dist. • 3) 20 μl of substrate mix, composed of a) 10% by vol. of 500 mM Tris-HCl pH 8, b) 10% by vol. of 500 mM NaCl, c) 10% by vol. of 3.33 mM MnCl2, d) 5% by vol. of 25 mM MUP, 5% by vol. of Tween20 (1%), 60% by vol. of H2O bi-dist.
# Enzyme buffer mix and substrate mix were made up 5 minutes prior to the addition and warmed to a temperature of 35° C. On completion of pipetting of all the solutions and on completion of mixing, the plate was incubated at 35° C. for 20 minutes. Finally, a relative fluorescence measurement was made at 35° C. with a BMG Labtech “POLARstar Optima” microplate reader using a 340/10 nm excitation filter and a 460 nm emission filter. The efficacy of the compounds of the general formula (I) is reported in the table which follows using abscisic acid […] as comparative substance (no. 38) according to the following classification: ++++(inhibition ≧90%), +++(90% >inhibition ≧70%), ++(70% >inhibition ≧50%), +(50% >inhibition ≧30%). […]
row,SMILES,ABI1 inhibition
1,"Cc1ccc(CS(=O)(=O)Nc2ccc3c(c2)CCC(=O)N3C2CC2C2CC2)cc1 (stereo not shown) [A16-152, N-{1-[1,1′-bi(cyclopropyl)-2-yl]-2-oxo-1,2,3,4-tetrahydroquinolin-6-yl}-1-(4-methylphenyl)methanesulfonamide]",++++ (inhibition ≧90%)
2,CC1CC(N2C(=O)CCc3cc(NS(=O)(=O)Cc4cc(F)cc(F)c4)ccc32)C1 (stereo not shown) [A26-164],++++ (inhibition ≧90%)
3,CC1CC(N2C(=O)CCc3cc(NS(=O)(=O)Cc4ccc([N+](=O)[O-])cc4)ccc32)C1 (stereo not shown) [A26-175],++++ (inhibition ≧90%)
4,O=C1CCc2cc(NS(=O)(=O)Cc3cccc(Cl)c3)ccc2N1C1(C2CC2)CC1 [A3-166],+++ (90% >inhibition ≧70%)
5,O=C1CCc2cc(NS(=O)(=O)Cc3cc(F)cc(F)c3)ccc2N1C1CC1C1CC1 (stereo not shown) [A16-164],++ (70% >inhibition ≧50%)
6,CC1CC(N2C(=O)CCc3cc(NS(=O)(=O)Cc4cccc(C#N)c4)ccc32)C1 (stereo not shown) [A26-182],++++ (inhibition ≧90%)
7,Cc1ccc(CS(=O)(=O)Nc2ccc3c(c2)CCC(=O)N3C2(C)CC2)cc1 [A1-152],++++ (inhibition ≧90%)
8,"N#Cc1ccc(CS(=O)(=O)Nc2ccc3c(c2)CCC(=O)N3C2CC3(CCC3)C2)cc1 [A33-181, 1-(4-Cyanophenyl)-N-[2-oxo-1-(spiro[3.3]hept-2-yl)-1,2,3,4-tetrahydroquinolin-6-yl]methanesulfonamide]",+++ (90% >inhibition ≧70%)
9,O=C1CCc2cc(NS(=O)(=O)Cc3cccc(Cl)c3)ccc2N1C12CC(C1)C2 [A30-166],++ (70% >inhibition ≧50%)
10,O=C1CCc2cc(NS(=O)(=O)Cc3ccc(Cl)cc3)ccc2N1C1CC1C1CC1 (stereo not shown) [A16-165],++++ (inhibition ≧90%)
11,"O=C1CCc2cc(NS(=O)(=O)Cc3ccc(C(F)(F)F)cc3)ccc2N1C12CC(C1)C2 [A30-178, N-[1-(Bicyclo[1.1.1]pent-1-yl)-2-oxo-1,2,3,4-tetrahydroquinolin-6-yl]-1-[4-(trifluoromethyl)phenyl]methanesulfonamide]",++++ (inhibition ≧90%)
12,CC1(N2C(=O)CCc3cc(NS(=O)(=O)Cc4ccc(F)cc4)ccc32)CC1 [A1-158],++++ (inhibition ≧90%)
13,Cc1ccc(CS(=O)(=O)Nc2ccc3c(c2)CCC(=O)N3C2CC(C)C2)cc1 (stereo not shown) [A26-152],++++ (inhibition ≧90%)
14,"CC1CC(N2C(=O)CCc3cc(NS(=O)(=O)Cc4ccc(Cl)cc4)ccc32)C1 (stereo not shown) [A26-165, 1-(4-Chlorophenyl)-N-[1-(3-methylcyclobutyl)-2-oxo-1,2,3,4-tetrahydroquinolin-6-yl]methanesulfonamide]",++++ (inhibition ≧90%)
15,CC(C)(C)c1ccc(CS(=O)(=O)Nc2ccc3c(c2)CCC(=O)N3C2CC2C2CC2)cc1 (stereo not shown) [A16-332],+++ (90% >inhibition ≧70%)
16,Cc1cccc(CS(=O)(=O)Nc2ccc3c(c2)CCC(=O)N3C2(C3CC3)CC2)c1 [A3-153],+++ (90% >inhibition ≧70%)
17,"CC1=CC(=O)CC(C)(C)[C@@]1(O)/C=C/C(C)=C\C(=O)O [abscisic acid, reference compound]",++++ (inhibition ≧90%)
18,Cc1ccc(CS(=O)(=O)Nc2ccc3c(c2)CCC(=O)N3C23CC(C2)C3)cc1 [A30-152],++++ (inhibition ≧90%)
19,Cc1ccc(S(=O)(=O)Nc2ccc3c(c2)CCC(=O)N3C23CC(C2)C3)cc1 [A30-50],++ (70% >inhibition ≧50%)
20,CC1CC(N2C(=O)CCc3cc(NS(=O)(=O)Cc4ccc(C(C)(C)C)cc4)ccc32)C1 (stereo not shown) [A26-332],++++ (inhibition ≧90%)
21,O=C1CCc2cc(NS(=O)(=O)Cc3ccc(F)cc3)ccc2N1C1CC1C1CC1 (stereo not shown) [A16-158],+++ (90% >inhibition ≧70%)
22,O=C1CCc2cc(NS(=O)(=O)Cc3cccc(F)c3)ccc2N1C12CC(C1)C2 [A30-159],+++ (90% >inhibition ≧70%)
